Data from ChEMBL document CHEMBL4330141, “Synthesis and evaluation of novel substituted 1,2,3-triazolyldihydroquinolines as promising antitubercular agents” (Bioorg Med Chem Lett, 2019).
Values after ≈ are worked out from the molar mass of the structure shown.

How the values were obtained:
[1] = test system: Mycobacterium tuberculosis; assay: Antitubercular activity against Mycobacterium tuberculosis H37Rv measured after 1 week by microplate alamar blue assay; format: functional; details: 168 h
HEK-293T = assay: Cytotoxicity against HEK293T cells after 48 hrs by MTT assay; format: cell-based; details: human
[2] = Protective index, ratio of MNTD50 for HEK293T cells to MIC for Mycobacterium tuberculosis H37Rv

Row | Structure (SMILES) | MIC [1] [µg/mL] | MNTD50 (HEK-293T) [µg/mL] | Ratio [2]
1 | Fc1cc(Br)ccc1Cn1cc(C2=C(Cl)c3ccc(-c4cccs4)nc3CC2)nn1 | 25 (≈ 49.8 µM) |  | 
2 | Fc1ccc(Cn2cc(C3=C(Cl)c4ccc(-c5cccs5)nc4CC3)nn2)c(Cl)c1 | 25 (≈ 54.7 µM) |  | 
3 | ClC1=C(c2cn(Cc3cccc(Br)c3)nn2)CCc2nc(-c3cccs3)ccc21 | 25 (≈ 51.7 µM) |  | 
4 | N#CC1=C(Cl)c2ccc(-c3cccs3)nc2CC1 | 25 (≈ 91.7 µM) |  | 
5 | COc1cccc(Cn2cc(C3=C(Cl)c4ccc(-c5cccs5)nc4CC3)nn2)c1 | 3.12 (≈ 7.17 µM) | 98 | 31.4
6 | O=C(O)c1cn(C2CC2)c2cc(N3CCNCC3)c(F)cc2c1=O [CIPROFLOXACIN] | 1.56 (≈ 4.71 µM) |  | 
7 | Fc1ccc(Cn2cc(C3=C(Cl)c4ccc(-c5cccs5)nc4CC3)nn2)cc1 | 25 (≈ 59.1 µM) |  | 
8 | ClC1=C(c2cn(Cc3ccc(Cl)c(Cl)c3)nn2)CCc2nc(-c3cccs3)ccc21 | 25 (≈ 52.8 µM) |  | 
9 | FC(F)(F)c1ccc(Cn2cc(C3=C(Cl)c4ccc(-c5cccs5)nc4CC3)nn2)cc1 | 6.25 (≈ 13.2 µM) | 86 | 13.76
10 | CC[C@@H](CO)NCCN[C@@H](CC)CO [ETHAMBUTOL] | 3.13 (≈ 15.3 µM) |  | 
11 | COc1ccc(Cn2cc(C3=C(Cl)c4ccc(-c5cccs5)nc4CC3)nn2)cc1 | 25 (≈ 57.5 µM) |  | 
12 | CO[C@H]1/C=C/O[C@@]2(C)Oc3c(C)c(O)c4c(O)c(c(/C=N/N5CCN(C)CC5)c(O)c4c3C2=O)NC(=O)/C(C)=C\C=C\[C@H](C)[C@H](O)[C@@H](C)[C@@H](O)[C@@H](C)[C@H](OC(C)=O)[C@@H]1C [RIFAMPIN] | 0.2 (≈ 0.243 µM) |  | 
13 | O=[N+]([O-])c1ccc(Cn2cc(C3=C(Cl)c4ccc(-c5cccs5)nc4CC3)nn2)cc1 | 12.5 (≈ 27.8 µM) | 69 | 5.52
14 | ClC1=C(c2cn(Cc3ccccc3)nn2)CCc2nc(-c3cccs3)ccc21 | 1.56 (≈ 3.85 µM) | 112 | 71.7
15 | CCc1ccc(Cn2cc(C3=C(Cl)c4ccc(-c5cccs5)nc4CC3)nn2)cc1 | 25 (≈ 57.7 µM) |  | 
16 | NNC(=O)c1ccncc1 [ISONIAZID] | 0.1 (≈ 0.729 µM) | 32 | 
17 | Cc1ccc(Cn2cc(C3=C(Cl)c4ccc(-c5cccs5)nc4CC3)nn2)cc1 | 25 (≈ 59.7 µM) |  | 
18 | ClC1=C(c2cn(Cc3ccc(Br)cc3)nn2)CCc2nc(-c3cccs3)ccc21 | 3.12 (≈ 6.45 µM) | 88 | 28.02
19 | Cc1cc(C)c(Cn2cc(C3=C(Cl)c4ccc(-c5cccs5)nc4CC3)nn2)c(C)c1 | 25 (≈ 55.9 µM) |  | 
20 | COc1cc(Cn2cc(C3=C(Cl)c4ccc(-c5cccs5)nc4CC3)nn2)cc(OC)c1OC | 12.5 (≈ 25.3 µM) | 74 | 5.92
